Laboratory results taken from patent US7229651B2, “Dietary supplements containing natural ingredients” (Melaleuca, Inc., priority 1998, dated 2007).

Tests used:
[1] = system: in vivo platelet activity (acute platelet thrombus formation); settings: cited from earlier work
platelet activity = settings: aspirin, blood aggregometry test; cited from earlier work
LDL cholesterol = assay: Copper ion catalysed LDL cholesterol oxidation (conjugated dienes at 234 nm, lag time); assay type: biochemical, human
Text: LDL cholesterol oxidation or protection therefrom can be determined by several methods. Kleinveld et al., Clin. Chem., 38(10):2066–2072 (1992) describes the methods for the LDL oxidation experiments described and used herein. A preferred way to practice the method encompasses extracting LDL cholesterol from whole blood samples collected from a subject using standard techniques. The extracted LDL cholesterol is divided into control and experimental samples. LDL oxidation is catalyzed by adding a copper ion solution to each LDL cholesterol sample. Copper ions are known to catalyze and enhance LDL cholesterol oxidation. […]
Copper ions accelerate the production of conjugated dienes in LDL cholesterol oxidation, which absorb light at 234 nm. Therefore, LDL cholesterol oxidation is monitored by following the increase in absorbance at 234 nm as a function of time as shown in FIG. 6. […]
As described above, LDL cholesterol oxidation is commonly measured by observing absorbance at 234 nm (Abs234nm) as a function of time while the LDL cholesterol is exposed to oxidative conditions. The antioxidant effectiveness of PROVEXCV™ and other substances was determined.
LDL cholesterol was prepared from human volunteer blood samples. […] To each sample a measured amount of copper ions was added.
After mixing, the Abs234nm of each solution was then monitored as a function of time. […]

CC(=O)Oc1ccccc1C(=O)O [aspirin]
dogs with renewed CFR's on epinephrine infusion ([1]; after abolishment of CFR's with 5–10 mg/kg of aspirin): 50–60 % of dogs | effect on CFR's ([1]; aspirin, Folts model, literature): eliminates CFR's | dosage at which platelet activity is inhibited ([1]; aspirin, known value): 5 mg/kg | reactivation of inhibited platelet activity on epinephrine ([1]; aspirin, epinephrine 0.2 μg/Kg/min intravenously): can be reactivated | decrease of platelet activity, collagen stimulated (platelet activity): 30–40%

vitamin E
lag time before LDL oxidation begins vs native LDL (LDL cholesterol; Vitamin E 5.3 mg/L, CuCl2 5 μmol/L, 30° C., FIG. 8): delayed | time LDL cholesterol protected from oxidation (lag time) (LDL cholesterol; vitamin E at the described concentration, copper ions): about 95 minutes
